Results on 26 molecules are retold here after patent US6465482B2, “Arylpiperazinyl-cyclohexyl indole derivatives for the treatment of depression” (Wyeth, priority 1999, dated 2002).

Structures can show the parent of a compound that is named as a salt. A value given as a limit tells only on which side of the number the result lay.

One data set addresses T1, human 5-HT1A receptor subtype (Homo sapiens, UniProt P08908).
T1 construct: expressed in transfected cells
T1 sequence (P08908 1-422): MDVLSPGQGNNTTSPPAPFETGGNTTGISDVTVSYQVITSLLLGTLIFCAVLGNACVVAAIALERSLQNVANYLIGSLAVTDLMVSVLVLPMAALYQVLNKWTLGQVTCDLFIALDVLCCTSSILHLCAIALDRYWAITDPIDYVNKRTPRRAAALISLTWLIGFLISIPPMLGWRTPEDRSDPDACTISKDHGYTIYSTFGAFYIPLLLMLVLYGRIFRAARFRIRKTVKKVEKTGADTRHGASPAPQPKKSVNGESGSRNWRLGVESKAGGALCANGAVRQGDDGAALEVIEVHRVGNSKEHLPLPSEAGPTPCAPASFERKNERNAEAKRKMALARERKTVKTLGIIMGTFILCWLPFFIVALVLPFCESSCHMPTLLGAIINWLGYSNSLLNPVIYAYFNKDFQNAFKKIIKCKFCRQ
Put plainly: 5-HT1A receptor binding, [3H]8-OH-DPAT, CHO cell membranes. Particulars: [3H]8-OH-DPAT 1.5 nM. The method, then:
The PCR cloning of the human 5-HT1A receptor subtype from a human genomic library has been described previously Chanda et al., Mol. Pharmacol., 43:516 (1993). A stable Chinese hamster ovary cell line expressing the human 5-HT1A receptor subtype (5-HT1A.CH2O cells) was employed throughout this study. Cells were maintained in DMEM supplemented with 10% fetal calf serum, non-essential amino acids and penicillin/streptomycin.
Cells were grown to 95-100% confluency as a monolayer before membranes were harvested for binding studies. Cells were gently scraped from the culture plates, transferred to centrifuge tubes, and washed twice by centrifugation (2000 rpm for 10 min., 4° C.) in buffer (50 mM Tris; pH 7.5). The resulting pellets were aliquoted and placed at −80° C. On the day of assay, the cells were thawed on ice, and resuspended in buffer. Studies were conducted using [^3H]8-OH-DPAT as the radioligand. The binding assay was performed in 96 well microtiter plates in a final total volume of 250 μL of buffer. Competition experiments were performed by using 7 concentrations of unlabelled drug and a final ligand concentration of 1.5 nM. Non-specific binding was determined in the presence of 10 μM 5HT. Saturation analysis was conducted by using [^3H]8-OH-DPAT at concentaritions ranging from 0.3-30 nm Following a 30 minute incubation at room temperature, the reaction was terminated by the addition of ice cold buffer and rapid filtration using a M-96 Brandel Cell Harvester (Gaithersburg, Md.) through a GF/B filter presoaked for 30 minutes in 0.5% polyethylenenimine.
For `Fc1cccc2[nH]cc([C@H]3CC[C@@H](N4CCN(c5cccc6c5OCCO6)CC4)CC3)c12` [Example 23a, 3-{(1,4-cis)-4-[4-(2,3-Dihydro-benzo[1,4]dioxin-5-yl)-piperazin-1-yl]-cyclohexyl}-4-fluoro-1H-indole], the Ki – broadly, a dissociation constant, usually derived from enzyme kinetics or from competition with a known ligand – was determined as 0.103 µM.
In turn, `CCn1cc([C@H]2CC[C@@H](N3CCN(c4cccc5[nH]ccc45)CC3)CC2)c2cc(C#N)ccc21` [Example 13a, 1-Ethyl-3-{(1,4-cis)-4-[4-(1H-indol-4-yl)-piperazin-1-yl]-cyclohexyl}-1H-indole-5-carbonitrile] showed a Ki of 0.563 µM.
The same measure, in the same setting: the result for `CCCn1cc([C@H]2CC[C@@H](N3CCN(c4cccc5[nH]ccc45)CC3)CC2)c2cc(C#N)ccc21` [Example 14a, 3-{(1,4-cis)-4-[4-(1H-Indol-4-yl)-piperazin-1-yl]-cyclohexyl}-1-propyl-1H-indole-5-carbonitrile] reads 0.82 µM.
Still for that read-out and setting: the figure for `Fc1cccc2[nH]cc([C@H]3CC[C@H](N4CCN(c5cccc6c5OCCO6)CC4)CC3)c12` [Example 23b, 3-{(1,4-trans)-4-[4-(2,3-Dihydro-benzo[1,4]dioxin-5-yl)-piperazin-1-yl]-cyclohexyl}-4-fluoro-1H-indole] is 0.0149 µM; for `COc1ccc2[nH]cc([C@H]3CC[C@@H](N4CCN(c5ccccc5OC)CC4)CC3)c2c1` [Example 20a, 5-Methoxy-3-{(1,4-cis)-4-[4-(2-methoxy-phenyl)-piperazin-1-yl]-cyclohexyl}-1H-indole] it is 0.631 µM.
`Fc1ccc2[nH]cc([C@H]3CC[C@@H](N4CCN(c5cccc6cccnc56)CC4)CC3)c2c1` [Example 27a, 8-{4-[(1,4-cis)-4-(5-Fluoro-1H-indol-3-yl)-cyclohexyl]-piperazin-1-yl}-quinoline] gave a Ki of 0.0697 µM.
`Fc1ccc2[nH]cc([C@H]3CC[C@H](N4CCN(c5cccc6cccnc56)CC4)CC3)c2c1` [Example 27b, 8-{4-[(1,4-trans)-4-(5-Fluoro-1H-indol-3-yl)-cyclohexyl]-piperazin-1-yl}-quinoline] yielded a Ki of 0.00654 µM.

The same data set, now with this note: concentration not given.
For the molecule `Cn1ccc2c(N3CCN([C@H]4CC[C@@H](c5cn(C)c6cc(F)ccc65)CC4)CC3)cccc21` [Example 11, 6-Fluoro-1-methyl-3-{cis-4-[4-(1-methyl-1H-indol-4-yl)-1-piperazinyl]cyclohexyl}-1H-indole], the “5-HT1A, value given as %” value was 0%.
Regarding `CCCn1cc([C@H]2CC[C@H](N3CCN(c4cccc5[nH]ccc45)CC3)CC2)c2cc(C#N)ccc21` [Example 14b, 3-{(1,4-trans)-4-[4-(1H-indol-4-yl)-piperazin-1-yl]-cyclohexyl}-1-propyl-1H-indole-5-carbonitrile], the “5-HT1A, value given as %” value was 0%.

Test system in a further data set: not given
Assay: not given
Conditions: not given
As for `COc1cc(N2CCN([C@H]3CC[C@@H](c4cn(C)c5ccc(C#N)cc54)CC3)CC2)c2ncccc2c1C` [Example 52a, (cis)-3-{4-[4-(6-Methoxy-5-methylquinolin-8-yl)piperazin-1-yl]cyclohexyl}-1-methyl-1H-indole-5-carbonitrile], the melting point (in general, the temperature of the solid-liquid transition) lay within 227 to 228 °C.
`N#Cc1ccc2[nH]cc([C@H]3CC[C@@H](N4CCN(c5cccc6[nH]ccc56)CC4)CC3)c2c1` (as salt: HCl) [Example 7a, 3-{4-[(1,4-cis)-4-(1H-Indol-4-yl)-piperazinyl-1-yl]cyclohexyl}-1H-indole-5-carbonitrile] had a melting point of 216 to 218 °C.
`COc1ccc2[nH]cc([C@H]3CC[C@@H](N4CCN(c5cccc6[nH]ccc56)CC4)CC3)c2c1` (as salt: HCl) (hydrate or solvate) [Example 8a, 5-Methoxy-3-[cis-4-[4-(1H-indol-4-yl)-1-piperazinyl]cyclohexyl]-1H-indole] yielded a melting point of 283 to 285 °C.
Same read-out and setting: the figure for `Fc1cccc2[nH]cc([C@H]3CC[C@@H](N4CCN(c5cccc6c5OCCO6)CC4)CC3)c12` (as salt: HCl) [Example 23a, 3-{(1,4-cis)-4-[4-(2,3-Dihydro-benzo[1,4]dioxin-5-yl)-piperazin-1-yl]-cyclohexyl}-4-fluoro-1H-indole] is 215 to 220 °C; for `COc1cc(N2CCN([C@H]3CC[C@@H](c4cn(C)c5ccc(C#N)cc54)CC3)CC2)c2nccc(C)c2c1` [Example 51c, (cis)-3-{4-[4-(6-Methoxy-4-methylquinolin-8-yl)piperazin-1-yl]cyclohexyl}-1-methyl-1H-indole-5-carbonitrile] it is 210 to 212 °C.
For the molecule `Fc1ccc2c(c1)[nH]cc2[C@H]1CC[C@@H](N2CCN(c3cccc4[nH]ccc34)CC2)CC1` (as salt: HCl) [Example 4a, 6-Fluoro-3-[cis-4-[4-(1H-indol-4-yl)-1-piperazinyl]cyclohexyl]-1H-indole], the melting point was 250 to 252 °C (dec.).
On to `COc1cc(N2CCN([C@H]3CC[C@@H](c4cn(C)c5ccc(C#N)cc54)CC3)CC2)c2ncccc2c1Cl` [Example 52e, (cis)-3-{4-[4-(5-Chloro-6-methoxyquinolin-8-yl)piperazin-1-yl]cyclohexyl}-1-methyl-1H-indole-5-carbonitrile], for which the melting point turned out to be 231 °C.
The molecule `COc1cc(N2CCN([C@H]3CC[C@H](c4cn(C)c5ccc(C#N)cc54)CC3)CC2)c2nccc(C)c2c1` [Example 51d, (trans)-3-{4-[4-(6-Methoxy-4-methylquinolin-8-yl)piperazin-1-yl]cyclohexyl}-1-methyl-1H-indole-5-carbonitrile] gave a melting point of 230 to 232 °C.
For the molecule `COc1ccc2[nH]cc([C@H]3CC[C@@H](N4CCN(c5ccccc5OC)CC4)CC3)c2c1` (as salt: HCl) [Example 20a, 5-Methoxy-3-{(1,4-cis)-4-[4-(2-methoxy-phenyl)-piperazin-1-yl]-cyclohexyl}-1H-indole], the melting point lay within 198 to 199 °C.
As to `CCCn1cc([C@H]2CC[C@@H](N3CCN(c4cccc5[nH]ccc45)CC3)CC2)c2cc(C#N)ccc21` (as salt: HCl) (hydrate or solvate) [Example 14a, 3-{(1,4-cis)-4-[4-(1H-Indol-4-yl)-piperazin-1-yl]-cyclohexyl}-1-propyl-1H-indole-5-carbonitrile], the melting point is 200 to 206 °C.
On to `N#Cc1ccc2[nH]cc([C@H]3CC[C@H](N4CCN(c5cccc6c5OCCO6)CC4)CC3)c2c1` (as salt: HCl) [Example 26b, 3-{(1,4-trans)-4-[4-(2,3-Dihydro-benzo[1,4]dioxin-5-yl)-piperazin-1-yl]-cyclohexyl}-1H-indole-5-carbonitrile], for which the melting point was 300 °C (dec.).
As to `Fc1ccc2[nH]cc([C@H]3CC[C@H](N4CCN(c5cccc6[nH]ccc56)CC4)CC3)c2c1` (as salt: HCl) [Example 3b, 5-Fluoro-3-[trans-4-[4-(1H-indol-4-yl)-1-piperazinyl]cyclohexyl]-1H-indole], the melting point was 280 °C (dec.).
Molecule `COc1cc(N2CCN([C@H]3CC[C@H](c4c[nH]c5ccc(C#N)cc54)CC3)CC2)c2cc[nH]c2c1` (as salt: HCl) [Example 68b, 3-[trans-4-[4-(6-Methoxy-1H-indole-4-yl)-1-piperazinyl]cyclohexyl]1H-indole-5-carbonitrile] yielded a melting point greater than 210 °C.
On to `Cn1cc([C@H]2CC[C@H](N3CCN(c4cc(C(=O)O)cc5cccnc45)CC3)CC2)c2cc(C#N)ccc21` [Example 74, 8-[4-[(trans)-4-(5-Cyano-1-methyl-1H-indole-3-yl)cyclohexyl]-1-piperazinyl]-6-quinolinecarboxylic Acid], for which the melting point came out at 275 °C.
For `N#Cc1ccc2[nH]cc(C3=CCC(N4CCN(c5cccc6[nH]ccc56)CC4)CC3)c2c1` (centres unmarked) (as salt: HCl) [Example 36, 3-{4-[4-(1H-Indol-4-yl)-piperazin-1-yl]-cyclohex-1-enyl}-1H-indole-5-carbonitrile], the melting point was in the range of 199 to 201 °C.
As for `COc1ccc(F)cc1N1CCN([C@H]2CC[C@H](c3c[nH]c4ccc(F)cc43)CC2)CC1` (as salt: HCl) [Example 22b, 5-Fluoro-3-{(trans)-4-[4-(5-fluoro-2-methoxy-phenyl)-piperazin-1-yl]-cyclohexyl}-1H-indole], the melting point was in the range of 272 to 273.5 °C.
In turn, `COc1cc2cccnc2c(N2CCN([C@H]3CC[C@@H](c4cn(C)c5ccc(C#N)cc54)CC3)CC2)n1` (as salt: salt) [Example 66a, (cis)-3-{4-[4-(6-Methoxy[1,7]naphthyridin-8-yl)piperazin-1-yl]cyclohexyl}-1-methyl-1H-indole-5-carbonitrile] registered a melting point of 235 to 238 °C.
